Results taken from patent publication US4093796A, “Antibiotic derivatives of polyene macrolide group and method of obtaining the same” (Politechnika Gdanska, priority 1971, dated 1978).
≈ marks a conversion by molar mass, not a printed value.

What was measured:
Format in all cases: cell-based
[1] = system: tested microorganisms; experiment: antimicrobial activity in liquid nutrient medium (serial dilution, turbidity)
Description: (b) determination of the antimicrobial activity of antibiotics and their derivatives in liquid nutrient medium-- table 2.
The antimicrobial activity of antibiotics and their derivatives in liquid nutrient medium has been determined by making serial dilutions of antibiotics in the manner described above and by mixing of 0.5 ml of antibiotic solution with 4.5 ml of medium inoculated with tested microorganisms and prepared after Sabouraud without agar and with the addition of tarchocilin in the amount of 25 mg per 1 l. Solutions were allowed to stand for 48 hours at the temperature of 32° C.
Minimum concentration that inhibits the microorganisms growth has been determined on the basis of turbidity determined by extinction growth at […]; results are compared in table 2.

[2] = system: Saccahromyces cerevisiae; experiment: antimicrobial activity in solid nutrient medium (serial dilution), Saccharomyces cerevisiae; details: solid Sabouraud medium, 36° C, 24 hours
Description: (§1) (a) determination of the antimicrobial activity of antibiotics and their derivatives in solid nutrient medium-- table 1
(§2) The antimicrobial activity in solid nutrient medium has been estimated with the aid of the serial dilution method as follows: 1 mg of antibiotic was dissolved in 1 ml of dimethylsulphoxide and diluted with 9 ml of sterile water. Serial dilutions in water had been performed and the minimum concentration inhibiting the growth of standard strains of Candida albicans and Saccahromyces cerevisiae estimated: 0.5 ml of the antibiotic solution was mixed in a Petri dish 10 cm in diameter with 9.5 ml of Sabouraud medium having a temperature of about 60° C. After mixing, solidifying the nutrient agar and inoculating the test microorganism on the surface, they were incubated at 36° C for 24 hours. The minimum inhibitory concentration was stated on the basis of observed absence of microorganism growth.

[3] = system: Candida albicans; experiment: inhibition of pathogenic strains isolated from contaminated human members, Candida albicans; details: 12 strains studied
Description: (§3) Studies were also conducted on the activity of the glucose derivative of nystatin, as compared with nystatin, in relation to a series of pathogenic strains of Candida and Geotrichum isolated from contaminated human members.

[4] = system: Candida sp.; experiment: inhibition of pathogenic strains isolated from contaminated human members, Candida sp.; details: 8 strains studied
Description: as §3

[5] = system: Geotrichum sp.; experiment: inhibition of pathogenic strains isolated from contaminated human members, Geotrichum sp.; details: 12 strains studied
Description: as §3

[6] = system: Candida albicans; experiment: antimicrobial activity in solid nutrient medium (serial dilution), Candida albicans; details: solid Sabouraud medium, 36° C, 24 hours
Description: as §1, §2

[7] = liquid medium after Sabouraud without agar, 48 hours, 32° C, extinction at 660 mm

**Q.** How did the MIC [1, 7] turn out when `C[C@@H]1[C@H](O)[C@@H](C)/C=C/C=C/C=C/C=C/C=C/C=C/C=C/[C@H](O[C@@H]2O[C@H](C)[C@@H](O)[C@H](N)[C@@H]2O)C[C@@H]2O[C@](O)(C[C@@H](O)[C@H](O)CC[C@@H](O)CC(=O)C[C@@H](O)CC(=O)O[C@H]1C)C[C@H](O)[C@H]2C(=O)O` [mycoheptin] was run?
**A.** 2.5 µg/mL (≈ 2.71 µM)

**Q.** Which MIC [1, 7] does the source give for `C[C@@H]1[C@H](O)[C@@H](C)/C=C/C=C/CC/C=C/C=C/C=C/C=C/[C@H](O[C@@H]2O[C@H](C)[C@@H](O)[C@H](NC3O[C@H](CO)[C@@H](O)[C@H](O)[C@H]3O)[C@@H]2O)C[C@@H]2O[C@](O)(C[C@@H](O)[C@H](O)CC[C@@H](O)C[C@@H](O)C[C@@H](O)CC(=O)O[C@H]1C)C[C@H](O)[C@H]2C(=O)O` (some centres unmarked) [NGL nystatin A1] here?
**A.** 1.0 µg/mL (≈ 0.919 µM)

**Q.** For `CCC[C@@H]1C/C=C/C=C/C=C/C=C/[C@H](O[C@@H]2O[C@H](C)[C@@H](O)[C@H](N)[C@@H]2O)C[C@@H]2O[C@](O)(C[C@@H](O)CCCC(=O)C[C@@H](O)[C@H](CC)C(=O)O1)C[C@H](O)[C@H]2C(=O)O` [rimocidin], which MIC [1, 7] is on record?
**A.** 2.5 µg/mL (≈ 3.26 µM)

**Q.** `C[C@@H]1C/C=C/C=C/C=C/C=C/[C@H](O[C@@H]2O[C@H](C)[C@@H](O)[C@H](N)[C@@H]2O)C[C@@H]2O[C@](O)(C[C@@H](O)C[C@H]3O[C@@H]3/C=C/C(=O)O1)C[C@H](O)[C@H]2C(=O)O` [pimaricin] was tested. Which MIC ([1]; 48 h) did it give?
**A.** 2.5 µg/mL (≈ 3.76 µM)

**Q.** `CC1C=CC=CC=CC=CC=CC=CC=CC(OC2OC(C)C(O)C(N)C2O)CC2OC(O)(CC(O)CC(O)C(O)CCC(O)CC(O)CC(=O)OC(C)C(C)C1O)CC(O)C2C(=O)O` (centres unmarked) [amphotericin B] was tested. Which MIC ([1]; 48 h) did it give?
**A.** 0.05 µg/mL (≈ 0.0541 µM)

**Q.** How did the MIC ([1]; 48 h) turn out when `COc1cc2c(c3oc(-c4ccccc4)cc(=O)c13)C=CC(C)(C)O2` [candidin] was run?
**A.** 0.2 µg/mL (≈ 0.598 µM)

**Q.** `C[C@@H]1[C@H](O)[C@@H](C)/C=C/C=C/CC/C=C/C=C/C=C/C=C/[C@H](O[C@@H]2O[C@H](C)[C@@H](O)[C@H](NC3O[C@H](CO)[C@@H](O)[C@H](O)[C@H]3O)[C@@H]2O)C[C@@H]2O[C@](O)(C[C@@H](O)[C@H](O)CC[C@@H](O)C[C@@H](O)C[C@@H](O)CC(=O)O[C@H]1C)C[C@H](O)[C@H]2C(=O)O` (some centres unmarked) [glucose derivative of nystatin] was tested. Which “Minimum inhibitory concentration against cerevisiae” value [2] did it give?
**A.** 2 µg/mL (≈ 1.84 µM)

**Q.** What about the “Number of strains the growth of which has been inhibited” value (“Number … of which has been inhibited” below) ([3]; Candida albicans after 24 hrs, 3.12 mcg/ml) of the same molecule?
**A.** 1 strains

**Q.** What about the “Number … of which has been inhibited” value ([3]; Candida albicans after 24 hrs, 6.25 mcg/ml) of the same molecule?
**A.** 11 strains

**Q.** What about the “Number … of which has been inhibited” value ([3]; Candida albicans after 24 hrs, 12.5 mcg/ml) of the same molecule?
**A.** 0 strains

**Q.** What about the “Number … of which has been inhibited” value ([3]; Candida albicans after 24 hrs, 25.0 mcg/ml) of the same molecule?
**A.** 0 strains

**Q.** What about the “Number … of which has been inhibited” value ([3]; Candida albicans after 24 hrs, 50.0 mcg/ml) of the same molecule?
**A.** 0 strains

**Q.** What about the “Number … of which has been inhibited” value ([3]; Candida albicans after 48 hrs, 3.12 mcg/ml) of the same molecule?
**A.** 0 strains

**Q.** What about the “Number … of which has been inhibited” value ([3]; Candida albicans after 48 hrs, 6.25 mcg/ml) of the same molecule?
**A.** 0 strains

**Q.** What about the “Number … of which has been inhibited” value ([3]; Candida albicans after 48 hrs, 12.5 mcg/ml) of the same molecule?
**A.** 12 strains

**Q.** And the “Number … of which has been inhibited” value ([3]; Candida albicans after 48 hrs, 25.0 mcg/ml)?
**A.** 0 strains

**Q.** What about the “Number … of which has been inhibited” value ([3]; Candida albicans after 48 hrs, 50.0 mcg/ml) of the same molecule?
**A.** 0 strains

**Q.** What about the “Number … of which has been inhibited” value ([4]; Candida sp. after 24 hrs, 3.12 mcg/ml) of the same molecule?
**A.** 2 strains

**Q.** What about the “Number … of which has been inhibited” value ([4]; Candida sp. after 24 hrs, 6.25 mcg/ml) of the same molecule?
**A.** 5 strains

**Q.** And the “Number … of which has been inhibited” value ([4]; Candida sp. after 24 hrs, 12.5 mcg/ml)?
**A.** 0 strains

**Q.** And the “Number … of which has been inhibited” value ([4]; Candida sp. after 24 hrs, 25.0 mcg/ml)?
**A.** 1 strains

**Q.** What about the “Number … of which has been inhibited” value ([4]; Candida sp. after 24 hrs, 50.0 mcg/ml) of the same molecule?
**A.** 0 strains

**Q.** What about the “Number … of which has been inhibited” value ([4]; Candida sp. after 48 hrs, 3.12 mcg/ml) of the same molecule?
**A.** 0 strains

**Q.** What about the “Number … of which has been inhibited” value ([4]; Candida sp. after 48 hrs, 6.25 mcg/ml) of the same molecule?
**A.** 2 strains

**Q.** And the “Number … of which has been inhibited” value ([4]; Candida sp. after 48 hrs, 12.5 mcg/ml)?
**A.** 3 strains

**Q.** What about the “Number … of which has been inhibited” value ([4]; Candida sp. after 48 hrs, 25.0 mcg/ml) of the same molecule?
**A.** 2 strains

**Q.** And the “Number … of which has been inhibited” value ([4]; Candida sp. after 48 hrs, 50.0 mcg/ml)?
**A.** 1 strains

**Q.** What about the “Number … of which has been inhibited” value ([5]; Geotrichum sp. after 24 hrs, 3.12 mcg/ml) of the same molecule?
**A.** 0 strains

**Q.** What about the “Number … of which has been inhibited” value ([5]; Geotrichum sp. after 24 hrs, 6.25 mcg/ml) of the same molecule?
**A.** 5 strains

**Q.** What about the “Number … of which has been inhibited” value ([5]; Geotrichum sp. after 24 hrs, 12.5 mcg/ml) of the same molecule?
**A.** 7 strains

**Q.** What about the “Number … of which has been inhibited” value ([5]; Geotrichum sp. after 24 hrs, 25.0 mcg/ml) of the same molecule?
**A.** 0 strains

**Q.** And the “Number … of which has been inhibited” value ([5]; Geotrichum sp. after 24 hrs, 50.0 mcg/ml)?
**A.** 0 strains

**Q.** And the “Number … of which has been inhibited” value ([5]; Geotrichum sp. after 48 hrs, 3.12 mcg/ml)?
**A.** 0 strains

**Q.** And the “Number … of which has been inhibited” value ([5]; Geotrichum sp. after 48 hrs, 6.25 mcg/ml)?
**A.** 0 strains

**Q.** And the “Number … of which has been inhibited” value ([5]; Geotrichum sp. after 48 hrs, 12.5 mcg/ml)?
**A.** 9 strains

**Q.** And the “Number … of which has been inhibited” value ([5]; Geotrichum sp. after 48 hrs, 25.0 mcg/ml)?
**A.** 3 strains

**Q.** And the “Number … of which has been inhibited” value ([5]; Geotrichum sp. after 48 hrs, 50.0 mcg/ml)?
**A.** 0 strains

**Q.** What about the “Minimum inhibitory concentration against Candida albicans” value [6] of the same molecule?
**A.** 2 µg/mL (≈ 1.84 µM)
